Results: ChEMBL document CHEMBL1255549 (Bioorg Med Chem Lett, 2010)

Biological target: Maltase-glucoamylase (Homo sapiens, UniProt O43451)
Assay: Inhibition of human recombinant N-terminal domain of maltase-glucoamylase after 60 mins by glucose oxidase assay

Sequence of Maltase-glucoamylase (O43451 whole entry, the tested form may be a part): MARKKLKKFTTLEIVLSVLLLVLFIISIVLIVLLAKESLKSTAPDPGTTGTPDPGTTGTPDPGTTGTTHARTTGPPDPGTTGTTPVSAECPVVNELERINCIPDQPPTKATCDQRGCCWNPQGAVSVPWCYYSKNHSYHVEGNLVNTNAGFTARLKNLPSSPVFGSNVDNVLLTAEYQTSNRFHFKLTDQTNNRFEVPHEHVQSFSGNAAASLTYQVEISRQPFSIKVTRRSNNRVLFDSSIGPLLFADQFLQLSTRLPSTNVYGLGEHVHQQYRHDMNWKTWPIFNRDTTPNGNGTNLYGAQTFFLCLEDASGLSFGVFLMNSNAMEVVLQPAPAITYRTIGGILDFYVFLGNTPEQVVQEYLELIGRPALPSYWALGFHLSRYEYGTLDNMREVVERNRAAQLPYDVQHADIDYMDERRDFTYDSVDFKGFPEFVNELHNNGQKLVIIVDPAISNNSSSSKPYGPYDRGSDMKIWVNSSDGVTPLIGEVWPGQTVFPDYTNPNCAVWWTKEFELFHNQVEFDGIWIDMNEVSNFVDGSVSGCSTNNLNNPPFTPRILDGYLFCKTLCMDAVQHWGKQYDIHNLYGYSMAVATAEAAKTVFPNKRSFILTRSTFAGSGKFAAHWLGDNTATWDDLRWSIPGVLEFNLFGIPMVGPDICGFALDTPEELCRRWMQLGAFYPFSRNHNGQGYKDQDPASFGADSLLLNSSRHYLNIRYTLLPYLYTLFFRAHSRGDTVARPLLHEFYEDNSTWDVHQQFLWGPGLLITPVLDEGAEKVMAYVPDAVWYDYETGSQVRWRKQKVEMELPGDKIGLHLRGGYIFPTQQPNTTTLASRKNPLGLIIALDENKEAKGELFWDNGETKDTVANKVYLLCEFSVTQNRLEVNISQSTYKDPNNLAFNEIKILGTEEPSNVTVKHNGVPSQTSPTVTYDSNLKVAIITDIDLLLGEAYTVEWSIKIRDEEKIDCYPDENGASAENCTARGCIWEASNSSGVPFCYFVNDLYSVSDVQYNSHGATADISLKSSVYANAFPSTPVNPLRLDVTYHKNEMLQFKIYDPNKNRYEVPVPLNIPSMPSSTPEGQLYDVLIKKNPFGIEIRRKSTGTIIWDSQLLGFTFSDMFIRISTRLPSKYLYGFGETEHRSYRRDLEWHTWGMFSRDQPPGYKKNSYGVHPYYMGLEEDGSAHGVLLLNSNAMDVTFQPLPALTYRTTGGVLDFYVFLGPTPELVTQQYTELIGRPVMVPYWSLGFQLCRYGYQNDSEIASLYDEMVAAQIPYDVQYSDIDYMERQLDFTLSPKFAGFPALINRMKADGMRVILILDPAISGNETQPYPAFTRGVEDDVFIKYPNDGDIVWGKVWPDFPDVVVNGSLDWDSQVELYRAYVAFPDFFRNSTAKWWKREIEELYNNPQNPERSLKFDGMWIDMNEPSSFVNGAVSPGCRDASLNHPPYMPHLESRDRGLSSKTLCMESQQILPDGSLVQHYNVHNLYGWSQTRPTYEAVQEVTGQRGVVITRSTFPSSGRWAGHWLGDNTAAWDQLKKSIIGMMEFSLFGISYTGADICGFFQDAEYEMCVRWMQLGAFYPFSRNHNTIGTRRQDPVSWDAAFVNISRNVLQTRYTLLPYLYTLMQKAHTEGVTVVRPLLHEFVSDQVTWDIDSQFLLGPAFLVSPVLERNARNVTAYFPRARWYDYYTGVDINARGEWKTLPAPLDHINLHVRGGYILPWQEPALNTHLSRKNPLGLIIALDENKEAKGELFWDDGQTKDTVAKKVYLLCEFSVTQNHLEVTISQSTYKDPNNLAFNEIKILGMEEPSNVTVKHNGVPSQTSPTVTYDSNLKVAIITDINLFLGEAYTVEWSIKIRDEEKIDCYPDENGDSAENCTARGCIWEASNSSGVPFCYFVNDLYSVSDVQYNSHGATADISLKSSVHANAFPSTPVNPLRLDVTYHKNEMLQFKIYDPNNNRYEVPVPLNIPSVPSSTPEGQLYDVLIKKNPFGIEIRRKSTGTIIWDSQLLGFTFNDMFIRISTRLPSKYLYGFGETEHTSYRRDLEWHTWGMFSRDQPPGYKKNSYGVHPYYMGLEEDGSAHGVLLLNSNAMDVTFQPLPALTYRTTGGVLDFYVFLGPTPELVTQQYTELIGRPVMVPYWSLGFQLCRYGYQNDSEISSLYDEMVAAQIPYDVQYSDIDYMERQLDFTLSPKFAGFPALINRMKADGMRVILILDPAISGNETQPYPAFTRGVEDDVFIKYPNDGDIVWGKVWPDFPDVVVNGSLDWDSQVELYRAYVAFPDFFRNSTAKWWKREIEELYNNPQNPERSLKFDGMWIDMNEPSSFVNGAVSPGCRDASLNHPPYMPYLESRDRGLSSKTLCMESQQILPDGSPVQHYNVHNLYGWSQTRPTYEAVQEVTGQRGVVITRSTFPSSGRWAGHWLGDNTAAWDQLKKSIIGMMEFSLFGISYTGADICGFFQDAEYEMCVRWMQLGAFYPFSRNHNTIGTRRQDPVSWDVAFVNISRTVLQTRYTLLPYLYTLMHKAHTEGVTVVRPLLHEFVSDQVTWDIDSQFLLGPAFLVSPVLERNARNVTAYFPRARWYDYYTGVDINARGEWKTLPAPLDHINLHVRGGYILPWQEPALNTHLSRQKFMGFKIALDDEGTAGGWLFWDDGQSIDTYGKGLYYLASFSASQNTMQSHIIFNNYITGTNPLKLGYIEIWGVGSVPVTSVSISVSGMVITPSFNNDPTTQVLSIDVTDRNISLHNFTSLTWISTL

Ki: 500 nM
SMILES: CO[C@@H]([C@H](O)[C@@H](O)CO)[C@H](O)C[S@+]1C[C@@H](O)[C@H](O)[C@H]1CO
